The structures appear in SMILES notation.

The IC50 is the concentration needed to halve the response being measured. A higher IC50 goes with lower potency.

This assay addresses USP7 (Homo sapiens, UniProt Q93009). The assay can be described thus: USP7 inhibitory potency (IC50). It is filed as biochemical. On the procedure:
Activity for compounds described herein is provided in Table 2, wherein potency levels are provided as follows: (Potency: USP7 IC50: A<0.01 μM; B=0.01-0.1 μM; C=>0.1 μM.

Sequence of USP7 (Q93009 whole entry): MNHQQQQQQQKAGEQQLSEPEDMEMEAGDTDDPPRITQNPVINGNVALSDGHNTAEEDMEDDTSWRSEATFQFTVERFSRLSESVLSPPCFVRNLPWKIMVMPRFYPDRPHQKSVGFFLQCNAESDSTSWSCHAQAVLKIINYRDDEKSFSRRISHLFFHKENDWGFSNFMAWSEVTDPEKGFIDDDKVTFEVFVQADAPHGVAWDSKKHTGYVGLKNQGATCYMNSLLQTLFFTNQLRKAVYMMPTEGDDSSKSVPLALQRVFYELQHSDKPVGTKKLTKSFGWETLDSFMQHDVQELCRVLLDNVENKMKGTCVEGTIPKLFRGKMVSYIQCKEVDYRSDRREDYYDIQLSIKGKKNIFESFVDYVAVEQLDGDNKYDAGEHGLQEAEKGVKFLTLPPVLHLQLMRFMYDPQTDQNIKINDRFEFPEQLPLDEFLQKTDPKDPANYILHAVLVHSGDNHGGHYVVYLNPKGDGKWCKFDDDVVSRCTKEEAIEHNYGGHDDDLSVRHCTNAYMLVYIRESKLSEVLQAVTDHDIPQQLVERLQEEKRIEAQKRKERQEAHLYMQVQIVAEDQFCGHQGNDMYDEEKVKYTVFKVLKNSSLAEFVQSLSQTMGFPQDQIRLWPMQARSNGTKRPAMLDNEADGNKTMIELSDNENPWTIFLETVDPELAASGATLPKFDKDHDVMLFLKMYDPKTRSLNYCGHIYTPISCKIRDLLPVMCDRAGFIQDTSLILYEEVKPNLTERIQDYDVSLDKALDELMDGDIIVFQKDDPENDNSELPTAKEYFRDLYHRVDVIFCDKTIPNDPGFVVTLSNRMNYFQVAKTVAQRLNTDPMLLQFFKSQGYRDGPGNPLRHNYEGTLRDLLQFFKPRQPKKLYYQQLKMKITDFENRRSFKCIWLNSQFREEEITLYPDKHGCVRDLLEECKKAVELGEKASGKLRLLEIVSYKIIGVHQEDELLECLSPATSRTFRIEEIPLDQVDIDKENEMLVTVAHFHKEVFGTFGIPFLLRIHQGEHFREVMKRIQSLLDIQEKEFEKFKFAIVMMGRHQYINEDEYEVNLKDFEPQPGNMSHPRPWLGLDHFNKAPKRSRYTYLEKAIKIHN

As to `Cc1cc(Cl)cc(-c2ncnc3cc(CN4C(=O)CCN(C)C4=O)sc23)c1CC1CNCC(C)(C)O1` (stereo not drawn) [Example 193, 3-((4-(5-chloro-2-((6,6-dimethylmorpholin-2-yl)methyl)-3-methylphenyl)thieno[3,2-d]pyrimidin-6-yl)methyl)-1-methyldihydropyrimidine-2,4(1H,3H)-dione], the concentration for half-maximal inhibition (IC50) is under 10 nM.

`Cc1cc(Cl)cc(-c2ncnc3cc(CN4C(=O)CCC4C(F)(F)F)sc23)c1CC1CNCC(C)(C)O1` (stereo not drawn) [Example 194, 1-((4-(5-chloro-2-((6,6-dimethylmorpholin-2-yl)methyl)-3-methylphenyl)thieno[3,2-d]pyrimidin-6-yl)methyl)-5-(trifluoromethyl)pyrrolidin-2-one] gave an IC50 of under 10 nM.

As for `Cc1cc(Cl)cc(-c2ncnc3cc(CN4C(=O)CCC4(C)C#N)sc23)c1CC1CNCC(C)(C)O1` (stereo not drawn) [Example 195, 1-((4-(5-chloro-2-((6,6-dimethylmorpholin-2-yl)methyl)-3-methylphenyl)thieno[3,2-d]pyrimidin-6-yl)methyl)-2-methyl-5-oxopyrrolidine-2-carbonitrile], the 50% inhibitory concentration (IC50) was in the range of 10 to 100 nM.

Molecule `Cc1cc(Cl)cc(-c2ncnc3cc(CN4C(=O)C5C(C4=O)C5(C)C)sc23)c1C[C@@H]1CNCCO1` (stereo partly drawn) [Example 196, 3-((4-(5-chloro-3-methyl-2-(((R)-morpholin-2-yl)methyl)phenyl)thieno[3,2-d]pyrimidin-6-yl)methyl)-6,6-dimethyl-3-azabicyclo[3.1.0]hexane-2,4-dione] had an IC50 of under 10 nM.

Consider `Cc1cc(Cl)cc(-c2ncnc3cc(CN4C(=O)CCC4=O)sc23)c1C[C@@H]1CNCCO1` [Example 197, (R)-1-((4-(5-chloro-3-methyl-2-(morpholin-2-ylmethyl)phenyl)thieno[3,2-d]pyrimidin-6-yl)methyl)pyrrolidine-2,5-dione], for which the concentration for half-maximal inhibition (IC50) is under 10 nM.

As for `Cc1cc(Cl)cc(-c2ncnc3cc(CN4C(=O)C5CC5C4=O)sc23)c1C[C@H]1CN(C(=O)C(F)(F)F)CCO1` (stereo partly drawn) [Example 198, 3-((4-(5-chloro-3-methyl-2-(((S)-4-(2,2,2-trifluoroacetyl)morpholin-2-yl)methyl)phenyl)thieno[3,2-d]pyrimidin-6-yl)methyl)-3-azabicyclo[3.1.0]hexane-2,4-dione], the IC50 is over 100 nM.

`Cc1cc(Cl)cc(-c2ncnc3cc(CN4C(=O)C5CC5C4=O)sc23)c1C[C@@H]1CN(C(=O)C(F)(F)F)CCO1` (stereo partly drawn) [Example 199, 3-((4-(5-chloro-3-methyl-2-(((R)-4-(2,2,2-trifluoroacetyl)morpholin-2-yl)methyl)phenyl)thieno[3,2-d]pyrimidin-6-yl)methyl)-3-azabicyclo[3.1.0]hexane-2,4-dione] gave a concentration for half-maximal inhibition (IC50) of under 10 nM.

For the molecule `Cc1cc(Cl)cc(-c2ncnc3cc(CN4C(=O)N(C)C(C)(C)C4=O)sc23)c1CC1CNCCO1` (stereo not drawn) [Example 200, 3-((4-(5-chloro-3-methyl-2-(morpholin-2-ylmethyl)phenyl)thieno[3,2-d]pyrimidin-6-yl)methyl)-1,5,5-trimethylimidazolidine-2,4-dione], the 50% inhibitory concentration (IC50) was under 10 nM.

In turn, `Cc1cc(Cl)cc(-c2ncnc3cc(CN4C(=O)C5C(C4=O)C5(C)C)sc23)c1C[C@@H]1CN(C(=O)C(F)(F)F)CCO1` (stereo partly drawn) [Example 201, 3-((4-(5-chloro-3-methyl-2-(((R)-4-(2,2,2-trifluoroacetyl)morpholin-2-yl)methyl)phenyl)thieno[3,2-d]pyrimidin-6-yl)methyl)-6,6-dimethyl-3-azabicyclo[3.1.0]hexane-2,4-dione] returned a 50% inhibitory concentration (IC50) of 10 to 100 nM.

With `Cc1cc(Cl)cc(-c2ncnc3cc(CNC4(CCC(=O)O)CC4)sc23)c1CC1CNCC(C)(C)O1` (stereo not drawn) [Example 202, 3-(1-(((4-(5-chloro-2-((6,6-dimethylmorpholin-2-yl)methyl)-3-methylphenyl)thieno[3,2-d]pyrimidin-6-yl)methyl)amino)cyclopropyl)propanoic acid], the half-inhibitory concentration (IC50) was in the range of 10 to 100 nM.

In turn, `Cc1cc(Cl)cc(-c2ncnc3cc(CN4C(=O)CCC45CC5)sc23)c1CC1CNCC(C)(C)O1` (stereo not drawn) [Example 203, 4-((4-(5-chloro-2-((6,6-dimethylmorpholin-2-yl)methyl)-3-methylphenyl)thieno[3,2-d]pyrimidin-6-yl)methyl)-4-azaspiro[2.4]heptan-5-one] returned a concentration for half-maximal inhibition (IC50) of 10 to 100 nM.

For the molecule `O=C1CCC(=O)N1Cc1cc2ncnc(-c3cc(Cl)cc(Cl)c3CC3CNCCO3)c2s1` (stereo not drawn) [Example 204, 1-((4-(3,5-dichloro-2-(morpholin-2-ylmethyl)phenyl)thieno[3,2-d]pyrimidin-6-yl)methyl)pyrrolidine-2,5-dione], the IC50 was under 10 nM.

`CN1CCC(=O)N(Cc2cc3ncnc(-c4cc(Cl)cc(Cl)c4CC4CNCCO4)c3s2)C1=O` (stereo not drawn) [Example 205, 3-((4-(3,5-dichloro-2-(morpholin-2-ylmethyl)phenyl)thieno[3,2-d]pyrimidin-6-yl)methyl)-1-methyldihydropyrimidine-2,4(1H,3H)-dione] displayed a half-maximal inhibitory concentration (IC50) of under 10 nM.

As for `Cc1cc(Cl)cc(-c2ncnc3cc(CN4C(=O)CC[C@@H]4CO)sc23)c1CC1CNCC(C)(C)O1` (stereo partly drawn) [Example 206, (5R)-1-((4-(5-chloro-2-((6,6-dimethylmorpholin-2-yl)methyl)-3-methylphenyl)thieno[3,2-d]pyrimidin-6-yl)methyl)-5-(hydroxymethyl)pyrrolidin-2-one], the 50% inhibitory concentration (IC50) fell in the range of 10 to 100 nM.

`Cc1cc(Cl)cc(-c2ncnc3cc(CN4C(=O)C5CC5C4=O)sc23)c1CC1CNCC2(CCC2)O1` (stereo not drawn) [Example 207, 3-((4-(2-((5-oxa-8-azaspiro[3.5]nonan-6-yl)methyl)-5-chloro-3-methylphenyl)thieno[3,2-d]pyrimidin-6-yl)methyl)-3-azabicyclo[3.1.0]hexane-2,4-dione] had a concentration for half-maximal inhibition (IC50) of under 10 nM.

As for `Cc1cc(Cl)cc(-c2ncnc3cc(CN4C(=O)C5CC5C4=O)sc23)c1CC1CNCC2(CC2)O1` (stereo not drawn) [Example 208, 3-((4-(2-((4-oxa-7-azaspiro[2.5]octan-5-yl)methyl)-5-chloro-3-methylphenyl)thieno[3,2-d]pyrimidin-6-yl)methyl)-3-azabicyclo[3.1.0]hexane-2,4-dione], the concentration for half-maximal inhibition (IC50) was under 10 nM.

`Cc1cc(Cl)cc(-c2ncnc3cc(C(C)N4C(=O)C5C(C4=O)C5(C)C)sc23)c1C[C@@H]1CNCCO1` (stereo partly drawn) [Example 209, 3-(1-(4-(5-chloro-3-methyl-2-(((R)-morpholin-2-yl)methyl)phenyl)thieno[3,2-d]pyrimidin-6-yl)ethyl)-6,6-dimethyl-3-azabicyclo[3.1.0]hexane-2,4-dione] gave a half-maximal inhibitory concentration (IC50) of under 10 nM.

In the case of `CN1CCC(=O)N(Cc2cc3ncnc(-c4cc(Cl)cc(Cl)c4CC4CNCC(C)(C)O4)c3s2)C1=O` (stereo not drawn) [Example 210, 3-((4-(3,5-dichloro-2-((6,6-dimethylmorpholin-2-yl)methyl)phenyl)thieno[3,2-d]pyrimidin-6-yl)methyl)-1-methyldihydropyrimidine-2,4(1H,3H)-dione], the IC50 was under 10 nM.

As for `CC1(C)CNCC(Cc2c(Cl)cc(Cl)cc2-c2ncnc3cc(CN4C(=O)CCC4=O)sc23)O1` (stereo not drawn) [Example 211, 1-((4-(3,5-dichloro-2-((6,6-dimethylmorpholin-2-yl)methyl)phenyl)thieno[3,2-d]pyrimidin-6-yl)methyl)pyrrolidine-2,5-dione], the concentration for half-maximal inhibition (IC50) was under 10 nM.

For the molecule `Cc1cc(Cl)cc(-c2ncnc3cc(CN4C(=O)CCC4=O)sc23)c1C[C@H]1CNCC(C)(C)O1` [Example 212, (S)-1-((4-(5-chloro-2-((6,6-dimethylmorpholin-2-yl)methyl)-3-methylphenyl)thieno[3,2-d]pyrimidin-6-yl)methyl)pyrrolidine-2,5-dione], the IC50 was in the range of 10 to 100 nM.

In turn, `Cc1cc(Cl)cc(-c2ncnc3cc(CN4C(=O)C5CC5C4=O)sc23)c1C[C@H]1CNCC(C)(C)O1` (stereo partly drawn) [Example 213, 3-((4-(5-chloro-2-(((S)-6,6-dimethylmorpholin-2-yl)methyl)-3-methylphenyl)thieno[3,2-d]pyrimidin-6-yl)methyl)-3-azabicyclo[3.1.0]hexane-2,4-dione] yielded an IC50 of 10 to 100 nM.

Regarding `Cc1cc(Cl)cc(-c2ncnc3cc(CN4C(=O)CCN(C)C4=O)sc23)c1C[C@H]1CNCC(C)(C)O1` [Example 214, (S)-3-((4-(5-chloro-2-((6,6-dimethylmorpholin-2-yl)methyl)-3-methylphenyl)thieno[3,2-d]pyrimidin-6-yl)methyl)-1-methyldihydropyrimidine-2,4(1H,3H)-dione], the IC50 is 10 to 100 nM.

Regarding `Cc1cc(Cl)cc(-c2ncnc3cc(CN4C(=O)CCC4=O)sc23)c1C[C@@H]1CNCC(C)(C)O1` [Example 215, (R)-1-((4-(5-chloro-2-((6,6-dimethylmorpholin-2-yl)methyl)-3-methylphenyl)thieno[3,2-d]pyrimidin-6-yl)methyl)pyrrolidine-2,5-dione], the IC50 is under 10 nM.

Molecule `Cc1cc(Cl)cc(-c2ncnc3cc(CN4C(=O)C5CC5C4=O)sc23)c1C[C@@H]1CNCC(C)(C)O1` (stereo partly drawn) [Example 216, 3-((4-(5-chloro-2-(((R)-6,6-dimethylmorpholin-2-yl)methyl)-3-methylphenyl)thieno[3,2-d]pyrimidin-6-yl)methyl)-3-azabicyclo[3.1.0]hexane-2,4-dione] displayed an IC50 of under 10 nM.

In the case of `Cc1cc(Cl)cc(-c2ncnc3cc(CN4C(=O)CCN(C)C4=O)sc23)c1C[C@@H]1CNCC(C)(C)O1` [Example 217, (R)-3-((4-(5-chloro-2-((6,6-dimethylmorpholin-2-yl)methyl)-3-methylphenyl)thieno[3,2-d]pyrimidin-6-yl)methyl)-1-methyldihydropyrimidine-2,4(1H,3H)-dione], the IC50 was under 10 nM.

The molecule `Cc1cc(Cl)cc(-c2ncnc3cc(Cn4c(=O)ccn(C)c4=O)sc23)c1C[C@@H]1CNCC(C)(C)O1` [Example 218, (R)-3-((4-(5-chloro-2-((6,6-dimethylmorpholin-2-yl)methyl)-3-methylphenyl)thieno[3,2-d]pyrimidin-6-yl)methyl)-1-methylpyrimidine-2,4(1H,3H)-dione] showed a half-maximal inhibitory concentration (IC50) of under 10 nM.

`Cc1cc(Cl)cc(-c2ncnc3cc(CN4C(=O)CC[C@@H]4CF)sc23)c1C[C@@H]1CNCC(C)(C)O1` [Example 219, (R)-1-((4-(5-chloro-2-(((R)-6,6-dimethylmorpholin-2-yl)methyl)-3-methylphenyl)thieno[3,2-d]pyrimidin-6-yl)methyl)-5-(fluoromethyl)pyrrolidin-2-one] gave an IC50 of under 10 nM.

The record behind these values is patent publication US11084829B2, “Ubiquitin-specific-processing protease 7 (USP7) modulators and uses thereof” (RAPT THERAPEUTICS, INC., priority 2018, dated 2021).
